Assay results as given in US20240034737A1, “Heterocyclic Derivatives as P2X7 Receptor Antagonists” (BREYE THERAPEUTICS APS, priority 2020, published 2024).

Experiments:
[1] = target: P2X7 receptor (Homo sapiens (Human), UniProt Q99572); assay: Human P2X7 channel calcium-influx assay (Fluo-8 NW, FLIPR TETRA, Bz-ATP stimulation); assay type: cell-based; settings: HEK-293 cells stably transfected with P2X7 receptor, Low Divalent Cation Assay Buffer, read-out: hP2X7 IC50
Description: (§1) Extracellular binding of Bz-ATP to P2X7 receptor opens the channel and allows Ca^2+ influx into the cells. This Ca^2+ entry was measured in HEK-293 cells stably transfected with P2X7 receptor using Screen Quest™ Fluo-8 No Wash Calcium Assay Kit (AAt Bioquest®, cat. 36316). Once inside the cell, the lipophilic blocking groups of Fluo-8 are cleaved by non-specific cell esterases, resulting in a negatively-charged fluorescent dye that stays inside cells. Its fluorescence increases upon binding to calcium. When HEK-293/P2X7 cells are stimulated with Bz-ATP, Ca^2+ enters the cells and the fluorescence of Fluo-8 NW increases.
(§2) HEK-293 cells stably transfected with P2X7 receptor were seeded overnight in growth medium at 10,000 to 20,000 cells/well in 384-well plate. 24 hours later, the medium was removed, and the cells were pre-loaded at RT for 1 hour with 20 μL/w of Fluo-8 NW. Then 10 μL/w of test compounds and reference antagonist A438079 at 3X-concentration were injected with the […] and the kinetic response over a period of five minutes was monitored.

[2] = target: mP2X7 (Mus musculus (Mouse), UniProt Q9Z1M0); assay: mP2X7 channel calcium-influx assay (Fluo-8 NW, FLIPR TETRA, Bz-ATP stimulation); assay type: cell-based
Sequence of mP2X7 (Q9Z1M0 whole entry): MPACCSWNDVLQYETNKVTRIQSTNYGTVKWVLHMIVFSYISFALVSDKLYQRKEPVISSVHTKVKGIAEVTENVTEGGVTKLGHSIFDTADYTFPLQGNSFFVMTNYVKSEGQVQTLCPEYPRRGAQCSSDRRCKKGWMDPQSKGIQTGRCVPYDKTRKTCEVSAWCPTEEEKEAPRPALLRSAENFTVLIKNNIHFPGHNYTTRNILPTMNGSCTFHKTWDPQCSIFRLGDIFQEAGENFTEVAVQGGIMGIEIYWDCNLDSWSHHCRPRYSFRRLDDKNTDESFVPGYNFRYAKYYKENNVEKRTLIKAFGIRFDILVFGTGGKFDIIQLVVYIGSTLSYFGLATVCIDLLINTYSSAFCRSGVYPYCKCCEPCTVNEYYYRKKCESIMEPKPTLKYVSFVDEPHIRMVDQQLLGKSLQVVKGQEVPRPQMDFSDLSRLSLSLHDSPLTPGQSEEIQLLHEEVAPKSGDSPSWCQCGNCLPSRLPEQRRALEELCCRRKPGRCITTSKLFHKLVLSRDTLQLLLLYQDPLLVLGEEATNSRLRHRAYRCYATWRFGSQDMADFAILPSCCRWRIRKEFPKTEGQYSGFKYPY
Description: as §1, §2

Sequence of P2X7 receptor (Q99572 whole entry): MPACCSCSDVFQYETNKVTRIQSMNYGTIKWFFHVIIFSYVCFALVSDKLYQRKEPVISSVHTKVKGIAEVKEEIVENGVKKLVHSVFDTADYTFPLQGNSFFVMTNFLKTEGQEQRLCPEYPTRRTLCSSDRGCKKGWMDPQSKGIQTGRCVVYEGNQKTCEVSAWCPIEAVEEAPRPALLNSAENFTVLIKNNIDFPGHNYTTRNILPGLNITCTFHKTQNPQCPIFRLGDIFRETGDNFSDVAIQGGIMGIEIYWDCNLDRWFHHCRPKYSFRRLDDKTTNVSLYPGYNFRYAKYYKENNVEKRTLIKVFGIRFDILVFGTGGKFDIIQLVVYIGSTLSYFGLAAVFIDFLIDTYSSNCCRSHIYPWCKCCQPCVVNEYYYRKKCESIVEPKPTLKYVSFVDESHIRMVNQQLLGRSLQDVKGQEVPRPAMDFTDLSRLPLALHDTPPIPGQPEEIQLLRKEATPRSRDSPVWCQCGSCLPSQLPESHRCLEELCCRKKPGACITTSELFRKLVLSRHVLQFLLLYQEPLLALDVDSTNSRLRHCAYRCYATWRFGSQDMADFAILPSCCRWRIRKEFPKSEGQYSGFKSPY

| IC50 [1] | IC50 [2] | SMILES |
| --- | --- | --- |
| 27.9 nM | 30.6 nM | O=C(NCC(c1scnc1C(F)F)N1CCC(Oc2nccn3nccc23)CC1)c1c(F)cccc1Cl (stereo not shown) [Example 44, 2-Chloro-N-{2-[4-(difluoromethyl)-1,3-thiazol-5-yl]-2-(4-{pyrazolo[1,5-a]pyrazin-4-yloxy}piperidin-1-yl)ethyl}-6-fluorobenzamide] |
| 31 nM | 43.9 nM | O=C(NCC(c1scnc1C(F)F)N1CCC(Oc2ncccc2Cl)CC1)c1c(F)cccc1Cl (stereo not shown) [Example 47, 2-Chloro-N-(2-{4-[(3-chloropyridin-2-yl)oxy]piperidin-1-yl}-2-[4-(difluoromethyl)-1,3-thiazol-5-yl]ethyl)-6-fluorobenzamide] |
| 19.4 nM | 19.5 nM | O=C(NCC(c1scnc1C(F)F)N1CCC(Oc2nccc3ncccc23)CC1)c1c(F)cccc1Cl (stereo not shown) [Example 49, 2-Chloro-N-{2-[4-(difluoromethyl)-1,3-thiazol-5-yl]-2-[4-(1,6-naphthyridin-5-yloxy)piperidin-1-yl]ethyl}-6-fluorobenzamide] |
| 274 nM | 571 nM | Cc1nnc2c(OC3CCN(C(CNC(=O)c4c(F)cccc4Cl)c4scnc4C(F)F)CC3)nccn12 (stereo not shown) [Example 52, 2-Chloro-N-{2-[4-(difluoromethyl)-1,3-thiazol-5-yl]-2-[4-({3-methyl-[1,2,4]triazolo[4,3-a]pyrazin-8-yl}oxy)piperidin-1-yl]ethyl}-6-fluorobenzamide] |

Second part, the molecule before the results:

| SMILES | IC50 [1] | IC50 [2] |
| --- | --- | --- |
| N#Cc1cnccc1OC1CCN(C(CNC(=O)c2c(F)cccc2Cl)c2scnc2C(F)F)CC1 (stereo not shown) [Example 50, 2-Chloro-N-(2-{4-[(3-cyanopyridin-4-yl)oxy]piperidin-1-yl}-2-[4-(difluoromethyl)-1,3-thiazol-5-yl]ethyl)-6-fluorobenzamide] | 89 nM | 224 nM |
| Cn1ncc2c(OC3CCN(C(CNC(=O)c4c(F)cccc4Cl)c4scnc4C(F)F)CC3)ncnc21 (stereo not shown) [Example 51, 2-Chloro-N-{2-[4-(difluoromethyl)-1,3-thiazol-5-yl]-2-[4-({1-methyl-1H-pyrazolo[3,4-d]pyrimidin-4-yl}oxy)piperidin-1-yl]ethyl}-6-fluorobenzamide] | 62.2 nM | 68.7 nM |
| Cc1nsc(OC2CCN(C(CNC(=O)c3c(F)cccc3Cl)c3scnc3C(F)F)CC2)c1C#N (stereo not shown) [Example 53, 2-Chloro-N-(2-{4-[(4-cyano-3-methyl-1,2-thiazol-5-yl)oxy]piperidin-1-yl}-2-[4-(difluoromethyl)-1,3-thiazol-5-yl]ethyl)-6-fluorobenzamide] | 41.5 nM | 38.7 nM |
| Cc1cc(OC2CCN(C(CNC(=O)c3c(F)cccc3Cl)c3scnc3C(F)F)CC2)nc(F)n1 (stereo not shown) [Example 54, 2-Chloro-N-{2-[4-(difluoromethyl)-1,3-thiazol-5-yl]-2-{4-[(2-fluoro-6-methylpyrimidin-4-yl)oxy]piperidin-1-yl}ethyl}-6-fluorobenzamide] | 22.8 nM | 52.9 nM |
| Cc1cnc(F)nc1OC1CCN(C(CNC(=O)c2c(F)cccc2Cl)c2scnc2C(F)F)CC1 (stereo not shown) [Example 55, 2-Chloro-N-{2-[4-(difluoromethyl)-1,3-thiazol-5-yl]-2-{4-[(2-fluoro-5-methylpyrimidin-4-yl)oxy]piperidin-1-yl}ethyl}-6-fluorobenzamide] | 22.9 nM | 34 nM |
| Cc1ncnc(OC2CCN(C(CNC(=O)c3c(F)cccc3Cl)c3scnc3C(F)F)CC2)c1F (stereo not shown) [Example 56, 2-Chloro-N-{2-[4-(difluoromethyl)-1,3-thiazol-5-yl]-2-{4-[(5-fluoro-6-methylpyrimidin-4-yl)oxy]piperidin-1-yl}ethyl}-6-fluorobenzamide] | 53.8 nM | 82 nM |
| O=C(NCC(c1scnc1C(F)F)N1CCC(Oc2cncc(-n3cccn3)n2)CC1)c1c(F)cccc1Cl (stereo not shown) [Example 58, 2-Chloro-N-{2-[4-(difluoromethyl)-1,3-thiazol-5-yl]-2-(4-{[6-(1H-pyrazol-1-yl)pyrazin-2-yl]oxy}piperidin-1-yl)ethyl}-6-fluorobenzamide] | 27.4 nM | 11.5 nM |
